Experiments:
Type in all cases: in vivo
[1] = test system: maize glutamine synthetase; test: Silencing of maize glutamine synthetase, qPCR of leaf samples and phenotype; conditions: dsRNA treated maize plants, 2-3 weeks after treatment
Experimental: The Zma-GS dsRNA molecule (SEQ ID NO 7:SEQ ID NO 8) used in this embodiment is a double stranded RNA version of SEQ ID NO 2. Methods for formulation of dsRNA and control solutions, plant growth conditions, and application of RNAi formulation were as described in the above example, with the exception that another control formulation was added with only Brassinosteroid at 0.1 micromolar.
Results were evaluated from leaf samples taken 2-3 weeks after treatment. Four plants were examined from each treatment group. […] Since glutamine synthetase is a natively expressed gene, qPCR analysis was performed to calculate silencing efficiency. qPCR was performed using the Applied Biosystems 7900HT Fast Real-Time PCR System. Silencing efficiency was calculated according to the publication Analysis of Relative Gene Expression Data Using Real-Time Quantitative PCR and the 2^−ΔΔCt Method. Methods (2001) 25:402-408.

NtPDS transcript = test: Silencing of NtPDS transcript in tobacco, qPCR and phenotype; conditions: leaves of dsRNA treated tobacco plants
Experimental: The tobacco gene encoding phytoene desaturase was evaluated for silencing using dsRNA constructs in combination with BR. […] The NtPDS dsRNA molecule (SEQ ID NO 10:SEQ ID NO 11) used in this embodiment is a double stranded RNA version of SEQ ID NO 4.
Similar to Example 3, once germinated and grown for 3-4 weeks, three tobacco plants were chosen for treatment for either the dsRNA or the control formulation. Here, the control formulation contained BR and water alone. […] As in Examples 2 and 3, the silencing efficiencies were calculated and are shown in the table below, where dsPDS is dsRNA from NtPDS.

NtFtsH transcript = test: Silencing of NtFtsH transcript in tobacco, qPCR and phenotype; conditions: leaves of dsRNA treated tobacco plants
Experimental: The tobacco gene encoding Filamentation temperature-sensitive H (NtFtsH) protease was evaluated for silencing using dsRNA constructs in combination with BR. […] The NtFtsH protease dsRNA molecule (SEQ ID NO 9:SEQ ID NO 10) used in this embodiment is a double stranded version of SEQ ID NO. 3.
Once germinated, tobacco plants were transplanted to new soil and grown for an additional 3-4 weeks. Three tobacco plants were chosen for treatment for either the dsRNA or the control formulation. The treatments were applied using methods similar to those described in Example 2. Here, the control formulation contained ZsGreen dsRNA. […] As in Example 2, the silencing efficiencies were calculated and are shown in the table below, where dsNtFtsH is dsRNA from NtFtsH protease and dsZsGreen is the dsRNA of ZsGreen: […]

With “dsGS: Zma-GS dsRNA (SEQ ID NO 7:SEQ ID NO 8), double stranded RNA version of SEQ ID NO 2” the phenotype [1] was “bleaching was observed”.

In the case of “dsPDS: NtPDS dsRNA, double stranded RNA version of SEQ ID NO 4”, the phenotype (NtPDS transcript) is reported as “bleaching phenotype was observed”.

B1: dsNtFtsH: NtFtsH protease dsRNA (SEQ ID NO 9:SEQ ID NO 10), double stranded version of SEQ ID NO. 3 (nucleic acid, listed as Nicotiana tabacum)
chain 1: CAAAUGGCAGUUGCACUUGGUGAAAGGGUUGCUGAGGAGGUUAUUUUUGGACAAGAUAACGUAACAACUGGGGCAUCUAACGAUUUCAUGCAAGUUUCACGAGUGGCAAGGCAGAUGGUUGAGAGAUUAGGGUUCAGCAAAAAGAUUGGACAAGUUGCCAUUGGAGGAGGUGGAGGAAAUCCUUUCCUAGGUCAACAGAUGUCAACCCAGAAAGACUACUCCAUGGCUACAGCCGAUGUGGUUGAUGCUGAAGUAAGGGAAUUGGUUGAAAGAGCAUAUGAAAGGGCAACAGAGAUUAUCACAACACACAUUGACAUCCUACACAAGCUUGCUCAGCUGUUGAUAGAGAAAGAAACUGUUGAUGGUGAAGAGUUCAUGAGCCUUUUCAUCGAUGG
chain 2: GUUUACCGUCAACGUGAACCACUUUCCCAACGACUCCUCCAAUAAAAACCUGUUCUAUUGCAUUGUUGACCCCGUAGAUUGCUAAAGUACGUUCAAAGUGCUCACCGUUCCGUCUACCAACUCUCUAAUCCCAAGUCGUUUUUCUAACCUGUUCAACGGUAACCUCCUCCACCUCCUUUAGGAAAGGAUCCAGUUGUCUACAGUUGGGUCUUUCUGAUGAGGUACCGAUGUCGGCUACACCAACUACGACUUCAUUCCCUUAACCAACUUUCUCGUAUACUUUCCCGUUGUCUCUAAUAGUGUUGUGUGUAACUGUAGGAUGUGUUCGAACGAGUCGACAACUAUCUCUUUCUUUGACAACUACCACUUCUCAAGUACUCGGAAAAGUAGCUACC
modifications: Sense strand of SEQIDNO3 (1)..(395); Complement of SEQIDNO9 (1)..(395)
With B1 the phenotype (NtFtsH transcript) was “bleaching phenotype was observed”.

Reference: patent US9433217B2, “Methods and compositions for introduction of exogenous dsRNA into plant cells” (Syngenta Participations AG, priority 2011, dated 2016)
